Reference: patent publication US7425562B2, “Inhibitors of cruzipain and other cysteine proteases” (Amura Therapeutics Ltd., priority 2001, dated 2008)

Columns and labels:
Assay type in all cases: biochemical
Cruzipain = biological target: T1, Cruzipain (Trypanosoma cruzi, UniProt P25779); experiment: Trypanosoma cruzi cruzipain peptidase activity assay (Ki); details: wild-type cruzipain from Trypanosoma cruzi Dm28 epimastigotes, pH 6.75, 25±1° C
T1 construct: Wild-type cruzipain, derived from Trypanosoma cruzi Dm28 epimastigotes; tissue Dr. Julio Scharfstein (Instituto de Biofisica Carlos Chagas Filho); host or cells: Trypanosoma cruzi Dm28 epimastigotes
Experimental: (§1) Assay protocols were based on literature precedent (Tablel; Barrett, A. J., Rawlings, N. D. and Woessner, J. F., 1998, Handbook of Proteolytic Enzymes, Academic Press, London and references therein) and modified as required to suit local assay protocols. Enzyme was added as required to initiate the reaction and the activity, as judged by the change in fluorescence upon conversion of substrate to product, was monitored over time. All assays were carried out at 25±1° C.
Wild-type cruzipain, derived from Trypanosoma cruzi Dm28 epimastigotes, was obtained from Dr. Julio Scharfstein (Instituto de Biofisica Carlos Chagas Filho, Universidade Federal do R^10 de Janeiro, R^10 de Janeiro, Brazil). Activity assays were carried out in 100 mM sodium phosphate, pH 6.75 containing 1 mM EDTA and 10 mM Loysteine using 2.5 nM enzyme. Ac-Phe-Arg-AMC (KM^app≈12 μM) and D-Val-Leu-Lys-AMC (KM^app≈4 μM) were used as the substrates. Routinely, Ac-FR-AMC was used at a concentration equivalent to KM^app and D-Val-Leu-Lys-AMC was used at a concentration of 25 μM. The rate of conversion of substrate to product was derived from the slope of the increase in fluorescence monitored continuously over time.
(§2) The apparent inhibition constant (Ki) for each compound was determined on the basis that inhibition was reversible and occurred by a pure-competitive mechanism. The Ki values were calculated, from the dependence of enzyme activity as a function of inhibitor concentration, by direct regression analysis (Prism v 3.02) using Equation 2 (Cornish-Bowden, A., 1995.).
(§3) In situations where the apparent dissociation constant (Ki^app) approached the enzyme concentrations, the Ki^app values were calculated using a quadratic solution in the form described by Equation 3 (Morrison, J. F. Trends Biochem. Sci., 7, 102-105, 1982; Morrison, J. F. Biochim. Biophys. Acta, 185, 269-286, 1969; Stone, S. R. and Hofsteenge, J. Biochemistry, 25, 4622-4628, 1986).

Bovine Cathepsin S = biological target: T2, Bovine Cathepsin S (Bos taurus, UniProt P25326); experiment: Cathepsin peptidase activity assay, bovine cathepsin S (Ki); details: boc-Val-Leu-Lys-AMC, pH 6.5, 25±1° C
T2 construct: purchased CN Biosciences
Experimental: as §1
(§4) Bovine cathepsin S, human cathepsin L, human cathepsin H and human cathepsin B were obtained from CN Biosciences. Recombinant human cathepsin S, human cathepsin K and human cathepsin X were obtained from Dr. Boris Turk (Josef Stefan Institute, Ljubljana, Slovenia). Unless otherwise stated, all peptidase activity assays were carried out in 10 mM bis-tris-propane (BTP), pH 6.5 containing 1 mM EDTA, 5 mM 2-mercaptoethanol and 1 mM CaCl2. Human cathepsin H activity assays were carried out in 10 mM BTP pH 6.5, 142 mM […], 1 mM CaCl2, 1 mM EDTA, 1 mM DTT, 0.035 mM Zwittergent 3-16. Human cathepsin K assays were carried out in 100 mM sodium acetate; pH 5.5 containing 20 mM L-cysteine and 1 mM EDTA (Bossard, M. J., et. al., J. Biol. Chem., 21, 12517-12524, 1996). Human cathepsin X assays were carried out in 100 mM sodium acetate; pH 5.5 containing 20 mM L-cysteine; 0.05% (w/v) Brij 35 and 1 mM EDTA (Santamaria, I., et. al., J. Biol. Chem., 273, 16816-16823, 1998; Klemencic, J, et al., Eur. J. Biochem., 267, 5404-5412, 2000). […] The rate of conversion of substrate to product was derived from the slope of the increase in fluorescence monitored continuously over time.
as §2, §3

Human Cathepsin L = biological target: T3, Human Cathepsin L (Homo sapiens, UniProt P07711); experiment: Cathepsin peptidase activity assay, human cathepsin L (Ki); details: Ac-Phe-Arg-AMC, pH 6.5, 25±1° C
T3 construct: purchased CN Biosciences
Experimental: as §1, §4, §2, §3

Human Cathepsin K = biological target: T4, Human Cathepsin K (Homo sapiens, UniProt P43235); experiment: Cathepsin peptidase activity assay, human cathepsin K (Ki); details: pH 5.5, 25±1° C
T4 construct: Dr. Boris Turk (Josef Stefan Institute, Ljubljana, Slovenia)
T4 sequence (P43235 115-329): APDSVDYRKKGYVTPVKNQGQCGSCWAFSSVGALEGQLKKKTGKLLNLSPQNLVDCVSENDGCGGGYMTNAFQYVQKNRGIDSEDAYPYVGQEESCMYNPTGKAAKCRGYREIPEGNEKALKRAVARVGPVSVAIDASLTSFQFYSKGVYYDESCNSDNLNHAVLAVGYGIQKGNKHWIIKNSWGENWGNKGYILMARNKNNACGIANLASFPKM
Experimental: as §1, §4, §2, §3

T3 sequence (P07711 114-333): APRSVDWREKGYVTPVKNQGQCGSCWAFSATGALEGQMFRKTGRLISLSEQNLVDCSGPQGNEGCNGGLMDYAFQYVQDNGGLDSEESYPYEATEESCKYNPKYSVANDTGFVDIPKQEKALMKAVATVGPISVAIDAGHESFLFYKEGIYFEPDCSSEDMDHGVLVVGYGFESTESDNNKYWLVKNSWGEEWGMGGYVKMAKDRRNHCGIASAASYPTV
T1 sequence (P25779 123-467): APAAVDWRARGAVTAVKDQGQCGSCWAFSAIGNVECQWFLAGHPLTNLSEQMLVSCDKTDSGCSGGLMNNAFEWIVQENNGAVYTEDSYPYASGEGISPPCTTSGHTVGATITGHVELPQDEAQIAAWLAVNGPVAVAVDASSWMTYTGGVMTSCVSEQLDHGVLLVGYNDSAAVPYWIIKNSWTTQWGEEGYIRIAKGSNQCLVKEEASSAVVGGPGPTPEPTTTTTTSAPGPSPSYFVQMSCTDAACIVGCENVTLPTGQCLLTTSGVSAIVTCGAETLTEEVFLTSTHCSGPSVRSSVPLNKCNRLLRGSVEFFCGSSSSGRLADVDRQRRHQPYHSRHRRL
T2 sequence (P25326 115-331): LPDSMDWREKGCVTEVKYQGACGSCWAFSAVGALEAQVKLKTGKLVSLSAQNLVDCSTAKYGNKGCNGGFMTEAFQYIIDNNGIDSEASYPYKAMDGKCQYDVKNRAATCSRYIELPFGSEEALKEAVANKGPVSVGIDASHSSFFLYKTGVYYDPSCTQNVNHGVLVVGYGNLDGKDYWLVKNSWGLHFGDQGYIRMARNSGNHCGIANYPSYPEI

| Ki (Cruzipain) [µM] | Ki (Bovine Cathepsin S) [µM] | Ki (Human Cathepsin L) [µM] | Ki (Human Cathepsin K) [µM] | Structure (SMILES) |
| --- | --- | --- | --- | --- |
| > 25 | 0.3 | > 100 | > 10 | O=C(N[C@@H](CSCc1ccccc1)C(=O)N1CC[C@H]2OCC(=O)[C@H]21)c1ccoc1 [Example 48, (3aS, 6aR) Furan-3-carboxylic Acid [1R-benzylsulfanylmethyl-2-oxo-2-(3-oxo-hexahydrofuro[3,2-b]pyrrol-4-yl)ethyl]amide] |
| > 5 | > 10 | > 25 | 0.1 | CC(C)C[C@H](NC(=O)c1ccc(Oc2ccccc2)cc1)C(=O)N1CC[C@H]2OCC(=O)[C@H]21 [Example 10, (3aS, 6aR) N-[3-methyl-1S-(3-oxo-hexahydrofuro[3,2-b]pyrrole-4-carbonyl)butyl]-4-phenoxybenzamide] |
| 0.2 | > 100 | > 35 | > 5 | CC(C)(C)c1ccc(C(=O)N[C@@H](Cc2ccc(O)cc2)C(=O)N2CC[C@H]3OCC(=O)[C@H]32)cc1 [Example 3, (3aS, 6aR) 4-tert-Butyl-N-[1S-(4-hydroxybenzyl)-2-oxo-2-(3-oxo-hexahydrofuro[3,2-b]pyrrol-4-yl)ethyl]benzamide] |
| > 5 | > 10 | 0.8 | > 100 | O=C(N[C@@H](Cc1ccc(O)cc1)C(=O)N1CC[C@H]2OCC(=O)[C@H]21)c1cccc2ccccc12 [Example 69, (3aS, 6aR) Naphthalene-1-carboxylic Acid [1S-(4-hydroxybenzyl)-2-oxo-2-(3-oxo-hexahydrofuro[3,2-b]pyrrol-4-yl)ethyl]amide] |
